Test results: patent US20050130890A1, “Amyloid beta is a ligand for FPR class receptors” (priority 2001, published 2005)

Target: T1, mouse FPR2 (Mus musculus, UniProt O88536)
T1 construct: expressed in transfected cells; host or cells: HEK 293
T1 sequence (O88536 1-351): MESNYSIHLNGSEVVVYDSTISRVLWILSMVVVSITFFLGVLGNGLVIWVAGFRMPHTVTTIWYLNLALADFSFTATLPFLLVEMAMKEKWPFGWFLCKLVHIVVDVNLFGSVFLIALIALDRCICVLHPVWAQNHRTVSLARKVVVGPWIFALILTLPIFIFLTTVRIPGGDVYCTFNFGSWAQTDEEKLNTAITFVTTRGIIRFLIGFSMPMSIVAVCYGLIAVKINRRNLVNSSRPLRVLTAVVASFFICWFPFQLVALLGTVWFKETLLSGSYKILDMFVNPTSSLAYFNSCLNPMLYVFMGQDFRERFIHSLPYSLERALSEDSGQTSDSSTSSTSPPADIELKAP
Assay: Calcium flux in FPR2-transfected HEK 293 cells
Type: cell-based
Details: 250 ng/ml pertussis toxin for 4 h
Source text: Cell Lines. Construction of human embryonic kidney (HEK) 293 cell lines expressing human formylpeptide receptor (FPR), human formylpeptide receptor-like 1 receptor (FPRL1R), mouse FPR, mouse FPR2, mouse lipoxin A4 receptor (encoded by Fpr-rs1), a mouse orphan receptor encoded by Fpr-rs3, and human CCR5 and CX3CR1 has been previously described (Hartt J. K. et al. 1999 J Exp Med 190:741-747; Combadiere C. et al. 1996 J Leukocyte Biol 60:147-152; Combadiere C. et al. 1998 J Biol Chem 273:23799-23804; Gao J.-L. et al. 1998 Genomics 51:270-276). Fpr-rs1 and Fpr-rs3 were tested because of their high structural similarity to the known formylpeptide receptors and because they are also expressed in phagocytes (Gao J.-L. et al. 1998 Genomics 51:270-276). […]
Calcium Flux Analysis. […] Data were recorded every 200 ms as the relative ratio of fluorescence emitted at 510 nm following sequential excitation at 340 and 380 nm. The following ligands were evaluated: Aβ (nonfibrillated, human residues 1-42; California Peptide Research; Napa, Calif.), fMet-Leu-Phe (fMLF; Sigma), ATP (Life Technologies), and the chemokines RANTES (regulated upon activation normal T-cell expressed and secreted), SDF-1 (stromal cell-derived factor-1), 1-309, fractalkine, MIP-1α (macrophage inflammatory protein-1α), and KC (Peprotech, Rocky Hill, N.J.). […]

pertussis toxin
effect of pretreatment on Aβ calcium flux signaling: completely blocked
